# Activity calls are given as the source filed them. No cut-off for these calls is given here. Bridge positions count the residues as written; N and C are the ends. Peptide text beside a SMILES is read from it. I, II: the chains in the order shown. * marks the point of attachment. Palmitoyl = CCCCCCCCCCCCCCCC(=O)*; Myristoyl = CCCCCCCCCCCCCC(=O)*; Hexanoyl = CCCCCC(=O)*
# Experiments:
# Pseudomonas aeruginosa [1] = assay: Antibacterial activity against Pseudomonas aeruginosa DR18531 after 24 hrs by broth microdilution method; format: functional; conditions: DR18531, 24 h
# Pseudomonas aeruginosa [2] = assay: Antibacterial activity against Pseudomonas aeruginosa DM4150R after 24 hrs by broth microdilution method; format: functional
# Escherichia coli [3] = assay: Antibacterial activity against Escherichia coli ATCC 25922 after 24 hrs by broth microdilution method; format: functional; conditions: ATCC 25922, 24 h
# Pseudomonas aeruginosa [4] = assay: Antibacterial activity against Pseudomonas aeruginosa DM23257 after 24 hrs by broth microdilution method; format: functional; conditions: DM23257, 24 h
# [5] = Induction of calcein leakage from DOPE/DOPG artificial membrane at 1:32 ratio of compound to lipid by fluorescence assay; format: physicochemical
# Pseudomonas aeruginosa [6] = assay: Antibacterial activity against Pseudomonas aeruginosa ATCC 9027 after 24 hrs by broth microdilution method; format: functional; conditions: ATCC 9027, 24 h
# Pseudomonas aeruginosa [7] = assay: Antibacterial activity against Pseudomonas aeruginosa DM23155 after 24 hrs by broth microdilution method; format: functional; conditions: DM23155, 24 h
# Lipopolysaccharide (LPS) [8] = assay: Induction of Escherichia coli 0111:B4 LPS neutralization using p-nitroaniline assessed as concentration required to neutralize 50% after 1 hr by limulus amebocyte lysate assay
# [9] = Toxicity in New Zealand white rabbit erythrocytes assessed as hemolytic activity after 60 mins; format: cell-based, Oryctolagus cuniculus; conditions: erythrocyte, 1 h
# Pseudomonas aeruginosa [10] = assay: Induction of cytoplasmic membrane disruption in Pseudomonas aeruginosa DM23155 assessed as membrane integrity at 1 to 2 times MIC after 1 hr by fluorescence assay; format: functional
# Pseudomonas aeruginosa [11] = assay: Antibacterial activity against Pseudomonas aeruginosa ATCC 27853 after 24 hrs by broth microdilution method; format: functional; conditions: ATCC 27853, 24 h
# Pseudomonas aeruginosa [12] = assay: Antibacterial activity against Pseudomonas aeruginosa DR4877 after 24 hrs by broth microdilution method; format: functional; conditions: DR4877, 24 h
# Pseudomonas aeruginosa [13] = assay: Antibacterial activity against Pseudomonas aeruginosa DU14476 after 24 hrs by broth microdilution method; format: functional; conditions: DU14476, 24 h
# Klebsiella pneumoniae [14] = assay: Antibacterial activity against Klebsiella pneumoniae DM4299 after 24 hrs by broth microdilution method; format: functional; conditions: DM4299, 24 h
# Pseudomonas aeruginosa [15] = assay: Antibacterial activity against Pseudomonas aeruginosa DM23155 assessed as log reduction of viable count at 2 times MIC after 30 mins by time-kill assay relative to control; format: functional
# Lipopolysaccharide (LPS) [16] = assay: Displacement of dansylcadaverine from Escherichia coli 0111:B4 LPS at 15 to 30 uM after 5 mins by high-throughput fluorescence displacement assay
# Pseudomonas aeruginosa [17] = assay: Antibacterial activity against Pseudomonas aeruginosa DM23376 after 24 hrs by broth microdilution method; format: functional; conditions: DM23376, 24 h
# Pseudomonas aeruginosa [18] = assay: Antibacterial activity against Pseudomonas aeruginosa DR5790 after 24 hrs by broth microdilution method; format: functional; conditions: DR5790, 24 h
# Pseudomonas aeruginosa [19] = assay: Antibacterial activity against Pseudomonas aeruginosa DM23155 after 24 hrs by checkerboard assay in presence of erythromycin; format: functional
# Escherichia coli [20] = assay: Antibacterial activity against Escherichia coli ATCC 25922 after 24 hrs by checkerboard assay in presence of gentamicin; format: functional
# Pseudomonas aeruginosa [21] = assay: Antibacterial activity against Pseudomonas aeruginosa DM23155 after 24 hrs by checkerboard assay in presence of kanamycin; format: functional
# Escherichia coli [22] = assay: Antibacterial activity against Escherichia coli ATCC 25922 after 24 hrs by checkerboard assay in presence of nalidixic acid; format: functional
# Escherichia coli [23] = assay: Antibacterial activity against Escherichia coli ATCC 25922 after 24 hrs by checkerboard assay in presence of streptomycin; format: functional
# Escherichia coli [24] = assay: Antibacterial activity against Escherichia coli ATCC 25922 after 24 hrs by checkerboard assay in presence of kanamycin; format: functional
# Pseudomonas aeruginosa [25] = assay: Antibacterial activity against Pseudomonas aeruginosa DM23155 after 24 hrs by checkerboard assay in presence of nalidixic acid; format: functional
# Escherichia coli [26] = assay: Antibacterial activity against Escherichia coli ATCC 25922 after 24 hrs by checkerboard assay in presence of erythromycin; format: functional
# Pseudomonas aeruginosa [27] = assay: Antibacterial activity against Pseudomonas aeruginosa DM23155 after 24 hrs by checkerboard assay in presence of gentamicin; format: functional
# Pseudomonas aeruginosa [28] = assay: Induction of 1-N-phenylnaphthylamine uptake in Pseudomonas aeruginosa DM23155 at 400 uM after 1 hr by fluorescence assay relative to polymyxin B; format: functional
# Pseudomonas aeruginosa [29] = assay: Antibacterial activity against Pseudomonas aeruginosa DM23155 after 24 hrs by checkerboard assay in presence of streptomycin; format: functional
# Klebsiella pneumoniae [30] = assay: Antibacterial activity against Klebsiella pneumoniae DS16260 after 24 hrs by broth microdilution method; format: functional; conditions: DS16260, 24 h
# Escherichia coli [31] = assay: Antibacterial activity against Escherichia coli DM17528 after 24 hrs by broth microdilution method; format: functional; conditions: DM17528, 24 h
# Klebsiella pneumoniae [32] = assay: Antibacterial activity against Klebsiella pneumoniae DU31158 after 24 hrs by broth microdilution method; format: functional; conditions: DU31158, 24 h
# Escherichia coli [33] = assay: Antibacterial activity against Escherichia coli DS17232 after 24 hrs by broth microdilution method; format: functional; conditions: DS17232, 24 h
# Klebsiella pneumoniae [34] = assay: Antibacterial activity against Klebsiella pneumoniae DB55301 after 24 hrs by broth microdilution method; format: functional; conditions: DB55301, 24 h
# Klebsiella pneumoniae [35] = assay: Antibacterial activity against Klebsiella pneumoniae DS07955 after 24 hrs by broth microdilution method; format: functional; conditions: DS07955, 24 h
# [36] = Self-aggregation activity of the compound using 8-(Phenylamino)-1-naphthalenesulfonic acid as fluorescent probe at 100 uM by fluorescence assay; format: physicochemical
# [37] = Induction of calcein leakage from DOPC artificial membrane at 1:32 ratio of compound to lipid by fluorescence assay; format: physicochemical
# [38] = Self-aggregation activity of the compound using 8-(Phenylamino)-1-naphthalenesulfonic acid as fluorescent probe at 20 uM by fluorescence assay; format: physicochemical
# [39] = Self-aggregation activity of the compound using 8-(Phenylamino)-1-naphthalenesulfonic acid as fluorescent probe at 300 uM by fluorescence assay in presence of 150 mM of NaCl; format: physicochemical
SMILES,MIC (Escherichia coli [3]) [µM],Activity [5],MIC (Pseudomonas aeruginosa [7]) [µM],EC50 (Lipopolysaccharide (LPS) [8]) [µM],MIC (Klebsiella pneumoniae [14]) [µM],Activity (Lipopolysaccharide (LPS) [16]) [%],Activity [36] [%],Activity [37],HC10 [9] [µg/mL],Activity (Pseudomonas aeruginosa [10]) [%],fractional inhibitory concentration index (FICI) (Pseudomonas aeruginosa [19]),fractional inhibitory concentration index (FICI) (Escherichia coli [20]),fractional inhibitory concentration index (FICI) (Pseudomonas aeruginosa [21]),fractional inhibitory concentration index (FICI) (Escherichia coli [22]),fractional inhibitory concentration index (FICI) (Escherichia coli [23]),fractional inhibitory concentration index (FICI) (Escherichia coli [24]),fractional inhibitory concentration index (FICI) (Pseudomonas aeruginosa [25]),fractional inhibitory concentration index (FICI) (Escherichia coli [26]),fractional inhibitory concentration index (FICI) (Pseudomonas aeruginosa [27]),fractional inhibitory concentration index (FICI) (Pseudomonas aeruginosa [29]),further results
CCCCCC(=O)N[C@@H](CCCNC(=N)N)C(=O)NCC(=O)N[C@@H](CCCNC(=N)N)C(=O)N[C@@H](CCCCN)C(=O)NCC(=O)NCC(=O)N[C@@H](CCCNC(=N)N)C(=O)N[C@@H](CCCNC(=N)N)C(=O)NCCCC[C@H](NC(=O)[C@H](CCCNC(=N)N)NC(=O)[C@H](CCCNC(=N)N)NC(=O)CNC(=O)CNC(=O)[C@H](CCCCN)NC(=O)[C@H](CCCNC(=N)N)NC(=O)CNC(=O)[C@H](CCCNC(=N)N)NC(=O)CCCCC)C(=O)N[C@@H](CCCCN)C(=O)O (I: Hexanoyl-RGRKGGRRKK-OH / II: Hexanoyl-RGRKGGRR; amide I:9-II:C),3,,3,413,3,86.4,,,> 10000,,0.56,0.56,0.5,0.75,0.38,0.5,0.63,0.75,0.31,0.5,Activity (Pseudomonas aeruginosa [28]): 10.5%
CCCCCCCCCCCCCC(=O)N[C@@H](CCCNC(=N)N)C(=O)NCC(=O)N[C@@H](CCCNC(=N)N)C(=O)N[C@@H](CCCCN)C(=O)N[C@H](C(=O)N[C@H](C(=O)N[C@@H](CCCNC(=N)N)C(=O)N[C@@H](CCCNC(=N)N)C(=O)NCCCC[C@H](NC(=O)[C@H](CCCNC(=N)N)NC(=O)[C@H](CCCNC(=N)N)NC(=O)[C@@H](NC(=O)[C@@H](NC(=O)[C@H](CCCCN)NC(=O)[C@H](CCCNC(=N)N)NC(=O)CNC(=O)[C@H](CCCNC(=N)N)NC(=O)CCCCCCCCCCCCC)C(C)C)C(C)C)C(=O)N[C@@H](CCCCN)C(=O)O)C(C)C)C(C)C (I: Myristoyl-RGRKVVRRKK-OH / II: Myristoyl-RGRKVVRR; amide I:9-II:C),1.5,Active,3,32.1,10,135,50,Active,252,<50,,,,,,,,,,,Activity [38]: 50%; Activity [39]: Active
CCCCCCCCCCCCCCCC(=O)N[C@@H](CCCNC(=N)N)C(=O)NCC(=O)N[C@@H](CCCNC(=N)N)C(=O)N[C@@H](CCCCN)C(=O)N[C@H](C(=O)N[C@H](C(=O)N[C@@H](CCCNC(=N)N)C(=O)N[C@@H](CCCNC(=N)N)C(=O)NCCCC[C@H](NC(=O)[C@H](CCCNC(=N)N)NC(=O)[C@H](CCCNC(=N)N)NC(=O)[C@@H](NC(=O)[C@@H](NC(=O)[C@H](CCCCN)NC(=O)[C@H](CCCNC(=N)N)NC(=O)CNC(=O)[C@H](CCCNC(=N)N)NC(=O)CCCCCCCCCCCCCCC)C(C)C)C(C)C)C(=O)N[C@@H](CCCCN)C(=O)O)C(C)C)C(C)C (I: Palmitoyl-RGRKVVRRKK-OH / II: Palmitoyl-RGRKVVRR; amide I:9-II:C),10,Active,> 40,47.9,> 40,151,50,Active,114,<50,,,,,,,,,,,Activity [38]: 50%; Activity [39]: Active

# Continued, in another order:
MIC (Escherichia coli [3]) [µM],Activity [5],MIC (Pseudomonas aeruginosa [7]) [µM],EC50 (Lipopolysaccharide (LPS) [8]) [µM],MIC (Klebsiella pneumoniae [14]) [µM],Activity (Lipopolysaccharide (LPS) [16]) [%],Activity [36] [%],Activity [37],SMILES,HC10 [9] [µg/mL],Activity (Pseudomonas aeruginosa [10]) [%],fractional inhibitory concentration index (FICI) (Pseudomonas aeruginosa [19]),fractional inhibitory concentration index (FICI) (Escherichia coli [20]),fractional inhibitory concentration index (FICI) (Pseudomonas aeruginosa [21]),fractional inhibitory concentration index (FICI) (Escherichia coli [22]),fractional inhibitory concentration index (FICI) (Escherichia coli [23]),fractional inhibitory concentration index (FICI) (Escherichia coli [24]),fractional inhibitory concentration index (FICI) (Pseudomonas aeruginosa [25]),fractional inhibitory concentration index (FICI) (Escherichia coli [26]),fractional inhibitory concentration index (FICI) (Pseudomonas aeruginosa [27]),fractional inhibitory concentration index (FICI) (Pseudomonas aeruginosa [29]),further results
3,Active,6,> 1000,6,82.4,,,CC(C)[C@H](NC(=O)[C@H](CCCCN)NC(=O)[C@H](CCCNC(=N)N)NC(=O)CNC(=O)[C@@H](N)CCCNC(=N)N)C(=O)N[C@H](C(=O)N[C@@H](CCCNC(=N)N)C(=O)N[C@@H](CCCNC(=N)N)C(=O)NCCCC[C@H](NC(=O)[C@H](CCCNC(=N)N)NC(=O)[C@H](CCCNC(=N)N)NC(=O)[C@@H](NC(=O)[C@@H](NC(=O)[C@H](CCCCN)NC(=O)[C@H](CCCNC(=N)N)NC(=O)CNC(=O)[C@@H](N)CCCNC(=N)N)C(C)C)C(C)C)C(=O)N[C@@H](CCCCN)C(=O)O)C(C)C (I: H-RGRKVVRRKK-OH / II: H-RGRKVVRR; amide I:9-II:C),> 10000,>80,,,,,,,,,,,MIC (Pseudomonas aeruginosa [1]): 3 µM; MIC (Pseudomonas aeruginosa [2]): 3 µM; MIC (Pseudomonas aeruginosa [4]): 3 µM; MIC (Pseudomonas aeruginosa [6]): 6 µM; MIC (Pseudomonas aeruginosa [11]): 6 µM; MIC (Pseudomonas aeruginosa [12]): 6 µM; MIC (Pseudomonas aeruginosa [13]): 6 µM; Activity (Pseudomonas aeruginosa [15]): inactive; MIC (Pseudomonas aeruginosa [17]): 6 µM; MIC (Pseudomonas aeruginosa [18]): 10 µM
3,Active,6,187,6,100,,,CCCCCC(=O)N[C@@H](CCCNC(=N)N)C(=O)NCC(=O)N[C@@H](CCCNC(=N)N)C(=O)N[C@@H](CCCCN)C(=O)N[C@H](C(=O)N[C@H](C(=O)N[C@@H](CCCNC(=N)N)C(=O)N[C@@H](CCCNC(=N)N)C(=O)NCCCC[C@H](NC(=O)[C@H](CCCNC(=N)N)NC(=O)[C@H](CCCNC(=N)N)NC(=O)[C@@H](NC(=O)[C@@H](NC(=O)[C@H](CCCCN)NC(=O)[C@H](CCCNC(=N)N)NC(=O)CNC(=O)[C@H](CCCNC(=N)N)NC(=O)CCCCC)C(C)C)C(C)C)C(=O)N[C@@H](CCCCN)C(=O)O)C(C)C)C(C)C (I: Hexanoyl-RGRKVVRRKK-OH / II: Hexanoyl-RGRKVVRR; amide I:9-II:C),> 10000,>80,0.38,0.38,0.31,0.5,0.38,0.5,0.38,0.38,0.25,0.38,MIC (Klebsiella pneumoniae [30]): 3 µM; MIC (Escherichia coli [31]): 10 µM; MIC (Klebsiella pneumoniae [32]): 10 µM; MIC (Escherichia coli [33]): 10 µM; MIC (Klebsiella pneumoniae [34]): 10 µM; MIC (Klebsiella pneumoniae [35]): 10 µM

# From ChEMBL document CHEMBL3603789, “N-Lipidated Peptide Dimers: Effective Antibacterial Agents against Gram-Negative Pathogens through Lipopolysaccharide Permeabilization” (J Med Chem, 2015)
